The test system of one data set is ATase1 and ATase2. The data set can be described thus: Western blot assessment of endogenous ATase1/ATase2 levels in H4 cells. It is filed as cell-based, human. As to conditions: 48 hours. On the procedure: FIG. 4. Compound 9 causes degradation of the ATases. (A) H4 cells were treated with the indicated compounds (10 μM) for 48 hours prior to Western blot assessment of BACE1 and ATase1/ATase2 levels in total cell lysates. (B, D and E) Quantification of changes are expressed as percent of control (no treatment) and are the average (n=3)±S.D.*, P<0.05; **, P<0.005; ^#, P<0.0005. (C) ELISA determination of secreted Aβ in the conditioned media of the experiment described in (A). Results are expressed as percent of control (no treatment) and are the average (n=3)±S.D.*, P<0.05; **, P<0.005. (F) CHO cells over-expressing either ATase1 or ATase2 were treated with compound 9 (10 μM) for 48 hours prior to Western blot assessment of ATase1 and ATase2 levels in total cell lysates.
FIG. 13. Compound 9 decreases the levels of both ATase1 and ATase2. (A) H4 cells were treated with the increasing concentrations of compound 9 for 48 hours prior to Western blot assessment of BACE1 and ATase1/ATase2 levels in total cell lysates. (B-D) Quantification of changes are expressed as percent of control (no treatment) and are the average (n=3)±S.D.*, P<0.05; **, P<0.005; ^#, P<0.0005.
Western blotting was performed on a 4-12% Bis-Tris SDS-PAGE system (NuPAGE; Invitrogen, Carlsbad, Calif., USA) as described previously (Costantini et al., 2006; Jonas et al., 2008; Jonas et al., 2010; Ko and Puglielli, 2007; Ko and Puglielli, 2009; Pehar et al., 2010). The following antibodies were used in this study: anti-acetylated lysine (monoclonal; cat. no. ab409; Abcam, Cambridge, Mass., USA); anti-BACE1 (polyclonal; cat. no. ab2077; Abcam); anti-Myc (monoclonal; cat. no. sc-40; santa cruz, Santa Cruz, Calif., USA); anti-ATases/NAT8 (polyclonal; cat. no. AP4957c; Abgent, San Diego, Calif., USA); anti-actin (monoclonal; cat. no. A1978; Sigma, St Louis, Mo., USA); anti-C99 (monoclonal; cat. no. M066-3; MBL, Woburn, Mass., USA); anti-acetylated H3 (polyclonal; cat. no. 06-599, Millipore, Billerica, Mass.); anti-acetylated H4 (polyclonal; cat. no. 06-866, Millipore, Billerica, Mass.); anti-αPCNA (polyclonal; cat. no. […]

For the next data set, the target named is T1, ATase1 (Homo sapiens, UniProt Q9UHF3).
T1 construct: myc (C); made in house
T1 sequence (Q9UHF3 1-227): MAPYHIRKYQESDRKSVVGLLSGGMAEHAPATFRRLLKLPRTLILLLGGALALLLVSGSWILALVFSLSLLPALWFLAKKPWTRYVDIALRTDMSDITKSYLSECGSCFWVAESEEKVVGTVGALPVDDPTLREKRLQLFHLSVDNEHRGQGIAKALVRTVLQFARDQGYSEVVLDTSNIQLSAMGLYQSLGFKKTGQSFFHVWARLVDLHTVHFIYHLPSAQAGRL
The data set can be described thus: AcetylCoA:lysine acetyltransferase assay (fluorescent, affinity purified ATase1-myc). It is filed as biochemical. On the procedure: The acetyl:CoA lysine acetyltransferase activity of ATase1 and ATase2 was assayed as described before (Ko and Puglielli, 2009). Briefly, we adapted a commercially available fluorescent kit (cat. no. 10006515, Cayman Chemicals) as follows: as source of the enzymatic activity, we used affinity purified ATase1-myc and ATase2-myc at the final concentration of 300 ng/μl; as donor of the acetyl group, we used acetyl-CoA at the final concentration of 12.5 μM. […] The acetyltransferase assay was performed as recommended by the manufacturer.
For kinetic analysis of ATase1 and ATase2 inhibition, the assays were performed in the presence of the indicated concentrations of compound 9, 19 and 9.I. The concentration of acetyl-CoA was varied from […]. Values were plotted as a Lineweaver-Burk plot using Graphpad Prism software.
We previously described a fluorescent assay that is able to assess the acetylCoA:lysine acetyltransferase activity of ATase1 and ATase2 in vitro (Ko and Puglielli, 2009). The assay employs affinity purified ATase1 or ATase2 (as enzymes), acetyl-CoA (as donor of the acetyl group) and a recombinant peptide corresponding to the N-terminal tail of the histone protein H3 (as acceptor of the acetyl group). The H3 peptide was preferred to affinity purified BACE1 because it is acetylated in a conformation independent manner ((Ko and Puglielli, 2009) and data not shown) and, therefore, more suitable for large screening approaches. To identify possible ATase1 and ATase2 inhibitors we used the assay to screen a single library of 14,400 small molecules/compounds. The screen identified 186 small molecules/compounds able to inhibit ATase1, ATase2 or both in vitro. […] Each compound was then screened for cytotoxic properties by using multi-plex cytotoxicity assays on a variety of cell lines, including human neuroblastoma and human neuroglioma. […] The above 30 compounds were individually screened on human neuroglioma (H4) cells for their ability to reduce the levels of BACE1 and the generation of Aβ. Two compounds, 9 and 19, produced significant changes and were object of further study.

A short description of data set [1]: BBB permeability: mass spectrometry of CSF of treated wild-type mice. As to conditions: 50 mg/kg/day in diet, 1 week. Format: in vivo, mouse. On the procedure:
FIGS. 14. (A), (B) and (C) Compound 9 is able to cross the BBB. Wild-type mice (n=5) were fed a diet containing 50 mg/kg/day of compound 9 for one week and then sacrificed. Control animals (n=5) received placebo-containing pellets. CSF was collected and analyzed by mass spectrometry (MS) to detect compound 9. The pick corresponding to compound 9 is indicated. […] Because of the strong hydrophobic properties of the compound, elution was in 100% methanol. Under these conditions most of compound 9 was found protonated and complexed as follows: 1 molecule of compound 9 (protonated):3 molecules of water (1 protonated):1 molecule of methanol. The total mass of the eluted complex was 369.4. This complex is only generated when adding methanol during the elution process for the MS. Compound 9 was never observed in control animals.
To assess BBB permeability properties, a group of 5 wild-type mice received 50 mg/kg/day of compound 9 for 1 week. Animals were then sacrificed and CSF collected for biochemical analysis. Treatment was limited to 1 week because this length of time is usually sufficient to reach equilibrium in biological fluids (Ito, et al., 1998; Singh, 2006; Houston and Galetin, 2008). Concentration and duration of the treatment was based on previous studies with drug-like compounds having similar mass and solubility properties (Ito, et al., 1998; Singh, 2006; Houston and Galetin, 2008).

In general, IC50 refers to the concentration needed to halve the response being measured.

With `O=c1c(Cl)c2oc3ccccc3nc-2c2ccccc12` [Compound 9], the “endogenous levels of ATase1 and ATase2” value with ATase1 and ATase2 (10 μM) is on record as “significantly down-regulate”. In addition, the “levels of the ATases with increasing concentrations” value in the data set with ATase1 and ATase2 (increasing concentrations) is “dose-dependent decrease”. At ATase1, this molecule gave an IC50 of about 3.9 µM. Besides, the “kinetics of inhibition for acetyl-CoA, ATase1” value on ATase1 (Lineweaver-Burk plot, acetyl-CoA varied) is on record as “competitive inhibition”. Besides, the “detection in CSF (crosses blood brain barrier)” value in data set [1] is “detect compound 9 in all treated animals”.

For the origin of these results see US9522124B2, “Methods for treating Alzheimer's disease” (Wisconsin Alumni Research Foundation, priority 2011, dated 2016).
